# Measured values from US10624891B2, “Method of diagnosing and treating skin necroptosis disease comprising RIP3-MLKL pathway blocker” (Ajou University Industry-Academic Cooperation Foundation, priority 2015, dated 2020).
# Read-outs that look alike come from different tables or passages of the source. Where a SMILES comes first, the peptide text is derived from it. The star is where a group is joined. Cbz = O=C(OCc1ccccc1)*; CH2F = FC*
# Legend:
# SNP-induced cell death = SNP-induced cell death with ROS scavenger or MAPK pathway inhibitors; type: cell-based; conditions: pretreatment or treatment with inhibitor
# Description: However, as shown in FIGS. 11A and 11B, in cells pretreated with NAC having ROS scavenging ability, SNP-induced cell death was inhibited similarly in Nec-1 treated group (FIG. 11A). From this, it was confirmed again that ROS is associated with SNP-induced cell death. Further, SNP-induced cell death was inhibited by treatment with JNK inhibitor […] (SP), p38 inhibitor sB202190 (SB), and MEK, upstream of ERK, inhibitor PD98059 (PD) (FIG. 11B).
# HaCaT cells = assay: SNP-induced cell death in HaCaT cells, MTT assay and phase-contrast microscopy; type: cell-based, human; conditions: for SNP-induced cell death (cell viability, MTT assay): pretreated with 80 μM of Nec-1 and/or 20 μM of zVAD for 1 hour, followed by SNP
# Procedure: Whether SNP-induced cell death is improved by […] necrostatin-1 (Nec-1), and combination treatment of zVAD and Nec-1 was examined in HaCaT cells using MTT assay and phase-contrast microscopy. Cells were pretreated with 80 μM of Nec-1 and/or 20 μM of zVAD for 1 hour, followed by SNP treatment.
# [1] = tested on: RIP3 overexpressing cells; assay: MLKL phosphorylation inhibition in RIP3 overexpressing cells; type: cell-based, human
# Description: As shown in FIGS. 17A and 17B, the basal phosphorylation of MLKL in RIP3 overexpressing cells, and SNP-induced p-MLKL were eliminated by an RIP3 inhibitor dabrafenib (FIG. 17A).
# HaCaT and HEKn = assay: TNFα-induced necroptosis stimuli (TCZ or TSZ) in keratinocytes; type: cell-based, human; conditions: TNFα + zVAD + cyclohexamide or SMAC mimetic
# Description: The immortal human keratinocyte line HaCaT and primary human epidermal keratinocyte isolated from neonatal foreskin (HEKn) responded to prototypical necroptosis stimuli induced by TNFα (TNFα[…]+zVAD+cyclohexamide or SMAC mimetic; also referred to herein as TCZ or TSZ). […] Additionally, from a knockout model, it was confirmed whether RIP3 and RIP1 affect TNF-induced cell death via necroptosis.
smiles,measurement,setting,value
CC(=O)N[C@@H](CS)C(=O)O [NAC],SNP-induced cell death,SNP-induced cell death,inhibited
"COc1nccnc1NS(=O)(=O)c1ccc(NC(=O)/C=C/c2ccc([N+](=O)[O-])s2)cc1 [NSA, necrosulfonamide]",protection from acute SNP cytotoxicity / SNP-induced cell death,HEKn cells; HEKn cells,protected HEKn cells from acute SNP cytotoxicity more effectively than zVAD
"CN1C(=O)C(Cc2c[nH]c3ccccc23)NC1=S (stereo not drawn) [Nec-1, necrostatin-1]",SNP-induced cell death (phase-contrast microscopy and Annexin-V staining),HaCaT cells,inhibited
same,"SNP-induced cell death (cell viability, MTT assay)",HaCaT cells,reduced
same,SNP-induced cell death,SNP-induced cell death,inhibited
same,protection from acute SNP cytotoxicity / SNP-induced cell death,HEKn cells; HEKn cells,protected HEKn cells from acute SNP cytotoxicity more effectively than zVAD
COc1cccc(-c2cc(=O)c3ccccc3o2)c1N [PD98059],SNP-induced cell death,SNP-induced cell death,inhibited
O=C1c2ccccc2-c2n[nH]c3cccc1c23 [SP420119],SNP-induced cell death,SNP-induced cell death,inhibited
CC(C)(C)c1nc(-c2cccc(NS(=O)(=O)c3c(F)cccc3F)c2F)c(-c2ccnc(N)n2)s1 [dabrafenib],SNP-induced p-MLKL,[1]; SNP treated,eliminated
same,basal phosphorylation of MLKL,[1]; no SNP,eliminated
same,protection from acute SNP cytotoxicity / SNP-induced cell death,HEKn cells,protected HEKn cells from acute SNP cytotoxicity more effectively than zVAD
Oc1ccc(-c2nc(-c3ccncc3)c(-c3ccc(F)cc3)[nH]2)cc1 [sB202190],SNP-induced cell death,SNP-induced cell death,inhibited
CC(NC(=O)C(NC(=O)OCc1ccccc1)C(C)C)C(=O)NC(CC(=O)O)C(=O)CF (stereo not drawn) [zVAD] (Cbz-Val-Ala-Asp-CH2F; configuration not given here),"SNP-induced cell death (cell viability, MTT assay)",HaCaT cells,reduced
same,TNF-induced cell death,HaCaT and HEKn,did not prevent
same,caspase-3 and PARP processing,HaCaT and HEKn,completely blocked
